# According to ChEMBL document CHEMBL5500358, “Identification of CH2-linked quinolone-aminopyrimidine hybrids as potent anti-MRSA agents: Low resistance potential and lack of cross-resistance with fluoroquinolone antibiotics” (Eur J Med Chem, 2024):
# Tests used:
# Staphylococcus aureus [1] = assay: Antibacterial activity against fluoroquinolone-sensitive methicillin resistant Staphylococcus aureus USA500 incubated for 16 to 18 hrs by absorbance based analysis; format: functional; conditions: time 16-18 hrs
# Staphylococcus aureus [2] = assay: Antibacterial activity against fluoroquinolone-sensitive methicillin resistant Staphylococcus aureus ATCC 33591 incubated for 16 to 18 hrs by absorbance based analysis; format: functional; conditions: time 16-18 hrs
# Escherichia coli = assay: Antibacterial activity against Escherichia coli ATCC 25922 incubated for 16 to 18 hrs by absorbance based analysis; format: functional; conditions: time 16-18 hrs
# Staphylococcus aureus [3] = assay: Antibacterial activity against fluoroquinolone/methicillin resistant Staphylococcus aureus Mu50 incubated for 16 to 18 hrs by absorbance based analysis; format: functional; conditions: time 16-18 hrs
# [4] = Metabolic stability in human liver microsomes assessed as drug elimination rate constant at 1 uM by LC-MS/MS analysis; format: ADME, Microsome
# [5] = Metabolic stability in human liver microsomes assessed as elimination half life at 1 uM by LC-MS/MS analysis; format: ADME, Microsome; conditions: read-out: beta t1/2
# [6] = Metabolic stability in human liver microsomes assessed as microsomal intrinsic clearance at 1 uM by LC-MS/MS analysis; format: ADME, Microsome; conditions: read-out: CLH
# [7] = Metabolic stability in human liver microsomes assessed as liver intrinsic clearance at 1 uM by LC-MS/MS analysis; format: ADME, Microsome; conditions: read-out: CLH
# [8] = Metabolic stability in human liver microsomes assessed as compound remaining at 1 uM measured after 60 mins by LC-MS/MS analysis; format: ADME, Microsome; conditions: read-out: Stability
# [9] = Metabolic stability in rat liver microsomes assessed as drug elimination rate constant at 1 uM by LC-MS/MS analysis; format: ADME, Microsome
# [10] = Metabolic stability in rat liver microsomes assessed as elimination half life at 1 uM by LC-MS/MS analysis; format: ADME, Microsome; conditions: read-out: beta t1/2
# [11] = Metabolic stability in rat liver microsomes assessed as microsomal intrinsic clearance at 1 uM by LC-MS/MS analysis; format: ADME, Microsome; conditions: read-out: CLH
# [12] = Metabolic stability in rat liver microsomes assessed as liver intrinsic clearance at 1 uM by LC-MS/MS analysis; format: ADME, Microsome; conditions: read-out: CLH
# [13] = Metabolic stability in rat liver microsomes assessed as compound remaining at 1 uM measured after 60 mins by LC-MS/MS analysis; format: ADME, Microsome; conditions: read-out: Stability
# A549 = assay: Cytotoxicity against human A549 cells assessed as reduction in cell viability at 100 uM incubated for 24 hrs by CCK-8 assay; format: toxicity, cell-based; conditions: a549, 24 h
# HEK293 = assay: Cytotoxicity against HEK293 cells assessed as reduction in cell viability at 100 uM incubated for 24 hrs by CCK-8 assay; format: toxicity, cell-based; conditions: human, hek293, 24 h
# [14] = molecular target: Voltage-gated inwardly rectifying potassium channel KCNH2 (Homo sapiens, UniProt Q12809); assay: Inhibition of hERG expressed in CHO cells at -80 mV holding potential by manual patch clamp method; format: toxicity, cell-based
# Voltage-gated inwardly rectifying potassium channel KCNH2, sequence (Q12809 whole entry): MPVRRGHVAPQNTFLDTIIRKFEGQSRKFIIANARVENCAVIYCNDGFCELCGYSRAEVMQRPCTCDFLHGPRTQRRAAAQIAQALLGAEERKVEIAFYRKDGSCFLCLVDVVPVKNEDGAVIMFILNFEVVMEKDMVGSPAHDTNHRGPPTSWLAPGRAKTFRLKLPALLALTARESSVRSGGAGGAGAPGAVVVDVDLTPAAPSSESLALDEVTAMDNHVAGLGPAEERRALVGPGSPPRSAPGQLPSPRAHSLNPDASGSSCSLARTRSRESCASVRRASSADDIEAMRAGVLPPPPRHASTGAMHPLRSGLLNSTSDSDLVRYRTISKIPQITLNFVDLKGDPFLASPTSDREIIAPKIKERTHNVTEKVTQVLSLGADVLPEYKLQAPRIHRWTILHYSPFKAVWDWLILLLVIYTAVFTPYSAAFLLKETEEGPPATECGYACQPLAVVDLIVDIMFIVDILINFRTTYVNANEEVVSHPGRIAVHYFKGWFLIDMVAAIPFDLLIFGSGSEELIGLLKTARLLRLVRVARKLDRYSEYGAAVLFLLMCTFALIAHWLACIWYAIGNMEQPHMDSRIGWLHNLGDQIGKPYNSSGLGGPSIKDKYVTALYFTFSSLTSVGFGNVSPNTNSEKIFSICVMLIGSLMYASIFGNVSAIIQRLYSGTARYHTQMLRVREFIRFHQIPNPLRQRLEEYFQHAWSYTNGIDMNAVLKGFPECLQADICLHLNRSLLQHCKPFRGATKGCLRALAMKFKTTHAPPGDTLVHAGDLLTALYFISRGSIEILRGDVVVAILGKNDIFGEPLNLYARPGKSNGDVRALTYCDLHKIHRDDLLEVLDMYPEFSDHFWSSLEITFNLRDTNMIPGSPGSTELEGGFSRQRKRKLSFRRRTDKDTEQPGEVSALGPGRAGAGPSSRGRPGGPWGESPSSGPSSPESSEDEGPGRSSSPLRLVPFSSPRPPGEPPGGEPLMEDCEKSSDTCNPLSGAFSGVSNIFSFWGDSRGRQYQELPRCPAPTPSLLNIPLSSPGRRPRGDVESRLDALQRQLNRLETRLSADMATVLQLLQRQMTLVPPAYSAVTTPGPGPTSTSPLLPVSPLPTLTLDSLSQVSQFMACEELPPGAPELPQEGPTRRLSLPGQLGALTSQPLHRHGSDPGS
# Staphylococcus aureus [15] = assay: Antibacterial activity against methicillin resistant Staphylococcus aureus ATCC 33591 measured after 15 passages; format: functional
# [16] = Acute toxicity in ICR mouse assessed as animal death at 400 to 2000 mg/kg, po administered as single dose via oral gavage and measured for 8 days; format: organism-based; conditions: in vivo, 192 h, dose 400-2000 mg/kg, time 8 day
# [17] = Acute toxicity in ICR mouse assessed as abnormal behaviors at 400 to 2000 mg/kg, po administered as single dose via oral gavage and measured for 8 days; format: organism-based; conditions: in vivo, 192 h, dose 400-2000 mg/kg, time 8 day
# [18] = Acute toxicity in male ICR mouse assessed as effect on body weight at 400 to 2000 mg/kg, po administered as single dose via oral gavage and measured for 8 days; format: organism-based; conditions: in vivo, 192 h, dose 400-2000 mg/kg, time 8 day
# [19] = Acute toxicity in female ICR mouse assessed as effect on body weight at 400 to 2000 mg/kg, po administered as single dose via oral gavage and measured for 8 days; format: organism-based; conditions: in vivo, 192 h, dose 400-2000 mg/kg, time 8 day
# [20] = Acute toxicity in ICR mouse assessed as effect on food intake at 400 to 2000 mg/kg, po administered as single dose via oral gavage and measured for 8 days; format: organism-based; conditions: in vivo, 192 h, dose 400-2000 mg/kg, time 8 day
# [21] = Acute toxicity in ICR mouse assessed as heart damage at 400 to 2000 mg/kg, po administered as single dose via oral gavage and measured on day 9; format: organism-based; conditions: in vivo, 216 h, dose 400-2000 mg/kg, time 9 day
# [22] = Acute toxicity in ICR mouse assessed as brain damage at 400 to 2000 mg/kg, po administered as single dose via oral gavage and measured on day 9; format: organism-based; conditions: in vivo, 216 h, dose 400-2000 mg/kg, time 9 day
# [23] = Acute toxicity in ICR mouse assessed as liver damage at 400 to 2000 mg/kg, po administered as single dose via oral gavage and measured on day 9; format: organism-based; conditions: in vivo, 216 h, dose 400-2000 mg/kg, time 9 day
# [24] = Acute toxicity in ICR mouse assessed as spleen damage at 400 to 2000 mg/kg, po administered as single dose via oral gavage and measured on day 9; format: organism-based; conditions: in vivo, 216 h, dose 400-2000 mg/kg, time 9 day
# [25] = Acute toxicity in ICR mouse assessed as lung damage at 400 to 2000 mg/kg, po administered as single dose via oral gavage and measured on day 9; format: organism-based; conditions: in vivo, 216 h, dose 400-2000 mg/kg, time 9 day
# [26] = Acute toxicity in ICR mouse assessed as kidney damage at 400 to 2000 mg/kg, po administered as single dose via oral gavage and measured on day 9; format: organism-based; conditions: in vivo, 216 h, dose 400-2000 mg/kg, time 9 day
# [27] = Initial drug concentration in male Sprague-Dawley rat at 10 mg/kg, iv administered as single dose and measured upto 24 hrs by LC-MS/MS analysis; format: ADME, organism-based; conditions: in vivo
# [28] = Half life in male Sprague-Dawley rat at 10 mg/kg, iv administered as single dose and measured upto 24 hrs by LC-MS/MS analysis; format: ADME, organism-based; conditions: in vivo
# [29] = Clearance in male Sprague-Dawley rat at 10 mg/kg, iv administered as single dose and measured upto 24 hrs by LC-MS/MS analysis; format: ADME, organism-based; conditions: in vivo
# [30] = AUC (0 to t) in male Sprague-Dawley rat at 10 mg/kg, iv administered as single dose and measured upto 24 hrs by LC-MS/MS analysis; format: ADME, organism-based; conditions: in vivo
# [31] = AUC (0 to infinity) in male Sprague-Dawley rat at 10 mg/kg, iv administered as single dose and measured upto 24 hrs by LC-MS/MS analysis; format: ADME, organism-based; conditions: in vivo
# [32] = MRT (0 to t) in male Sprague-Dawley rat at 10 mg/kg, iv administered as single dose and measured upto 24 hrs by LC-MS/MS analysis; format: ADME, organism-based; conditions: in vivo
# [33] = MRT (0 to infinity) in male Sprague-Dawley rat at 10 mg/kg, iv administered as single dose and measured upto 24 hrs by LC-MS/MS analysis; format: ADME, organism-based; conditions: in vivo
# [34] = Cmax in male Sprague-Dawley rat at 20 mg/kg, po administered as single dose and measured upto 24 hrs by LC-MS/MS analysis; format: ADME, organism-based; conditions: in vivo
# [35] = Half life in male Sprague-Dawley rat at 20 mg/kg, po administered as single dose and measured upto 24 hrs by LC-MS/MS analysis; format: ADME, organism-based; conditions: in vivo
# [36] = Tmax in male Sprague-Dawley rat at 20 mg/kg, po administered as single dose and measured upto 24 hrs by LC-MS/MS analysis; format: ADME, organism-based; conditions: in vivo
# [37] = AUC (0 to t) in male Sprague-Dawley rat at 20 mg/kg, po administered as single dose and measured upto 24 hrs by LC-MS/MS analysis; format: ADME, organism-based; conditions: in vivo
# [38] = AUC (0 to infinity) in male Sprague-Dawley rat at 20 mg/kg, po administered as single dose and measured upto 24 hrs by LC-MS/MS analysis; format: ADME, organism-based; conditions: in vivo
# [39] = MRT (0 to t) in male Sprague-Dawley rat at 20 mg/kg, po administered as single dose and measured upto 24 hrs by LC-MS/MS analysis; format: ADME, organism-based; conditions: in vivo
# [40] = MRT (0 to infinity) in male Sprague-Dawley rat at 20 mg/kg, po administered as single dose and measured upto 24 hrs by LC-MS/MS analysis; format: ADME, organism-based; conditions: in vivo
# [41] = Oral bioavailability in male Sprague-Dawley rat at 20 mg/kg administered as single dose and measured upto 24 hrs by LC-MS/MS analysis; format: ADME, organism-based; conditions: in vivo
smiles,measurement,setting,value
O=C(O)c1cn(C2CC2)c2cc(Nc3nccc(Cc4ccc(F)cc4F)n3)ccc2c1=O,MIC,Staphylococcus aureus [1],0.39 µg/mL
same,MIC,Staphylococcus aureus [2],0.25 µg/mL
same,MIC,Escherichia coli,> 64 µg/mL
same,MIC,Staphylococcus aureus [3],0.39 µg/mL
same,k el at 1 µM,[4],0.00025 s⁻¹
same,half-life at 1 µM,[5],0.75 h
same,microsomal CLint at 1 µM,[6],30.8 µL/min/mg
same,CLint scaled at 1 µM,[7],29.1 mL/min/kg
same,"remaining at 1 h, 1 µM",[8],40.9%
same,k el at 1 µM,[9],0.000283 s⁻¹
same,half-life at 1 µM,[10],0.683 h
same,microsomal CLint at 1 µM,[11],33.8 µL/min/mg
same,CLint scaled at 1 µM,[12],60.9 mL/min/kg
same,"remaining at 1 h, 1 µM",[13],35.7%
same,Activity,A549,Non-Toxic
same,Activity,HEK293,Non-Toxic
same,IC50,[14],> 40 µM
same,MIC,Staphylococcus aureus [15],0.25 µg/mL
same,Activity,[16],Non-Toxic
same,Activity,[17],Non-Toxic
same,Activity,[18],Non-Toxic
same,Activity,[19],Non-Toxic
same,Activity,[20],Non-Toxic
same,Activity,[21],Non-Toxic
same,Activity,[22],Non-Toxic
same,Activity,[23],Non-Toxic
same,Activity,[24],Non-Toxic
same,Activity,[25],Non-Toxic
same,Activity,[26],Non-Toxic
same,C0 at 24 h,[27],11800 ng/mL
same,half-life,[28],4.23 h
same,clearance,[29],18.5 mL/min/kg
same,AUC(0-t) at 24 h,[30],9060 ng·h/mL
same,AUC(0-inf),[31],9100 ng·h/mL
same,MRT last at 24 h,[32],1.01 h
same,MRT inf,[33],1.2 h
same,Cmax,[34],31 ng/mL
same,half-life,[35],2.16 h
same,Tmax,[36],2.67 h
same,AUC(0-t) at 24 h,[37],162 ng·h/mL
same,AUC(0-inf),[38],171 ng·h/mL
same,MRT last at 24 h,[39],3.51 h
same,MRT inf,[40],4.2 h
same,bioavailability,[41],0.9%
